Test [1] relates to caecum content metagenome. Description: Broiler feeding trial, cecal metagenomic analysis (KEGG and SEED functional genes). It counts as in vivo, chickens. The settings on record: treated groups (B and C) vs control group (A).
Procedure: The DNA are being extracted from each sample of caecum content using a bead-beating procedure. Briefly, 0.25 g of cecal content are suspended in 1 ml lysis buffer (500 mM NaCl, 50 mM Tris-Cl, pH 8.0, 50 mM EDTA, 4% SDS) with MagNA Lyser Green Beads (Roche, Milan, Italy) and homogenized on the MagNA Lyser (Roche) for 25 sec at 6500 rpm. The samples are then heated at 70° C. for 15 min, followed by centrifugation to separate the DNA from the bacterial cellular debris. This process is repeated with a second 300 μl aliquot of lysis buffer. The samples are then subjected to 10 M v/v ammonium acetate (Sigma, Milan, Italy) precipitation, followed by isopropanol (Sigma) precipitation and a 70% ethanol (Carlo Erba, Milan, Italy) wash and re-suspended in 100 ul 1× Tris-EDTA (Sigma). The samples are then treated with DNase-free RNase (Roche) and incubated overnight at 4° C., before being processed through the QIAmp® DNA Stool Mini Kit (Qiagen, Milan, Italy) according to manufacturer's directions with some modifications. Samples are measured on a BioSpectrometer® (Eppendorf, Milan, Italy) to assess DNA quantity and quality. […]
Filtering and trimming of raw reads were performed using MGRast (MR) (mgrast.org) (Keegan et al., 2016) bioinformatics pipelines. […]
The subject of the next test is caecal contents. Kind of test: In vitro gas production with caecal contents. Format: cell-based, pigs.
Test [2] concerns Pepsin, pancreatin, viscozyme. Kind of test: In vitro enzymatic digestion with exogenous enzymes. Format: biochemical. The procedure:
Erlenmeyer flasks (100 mL total volume) contained 0.5 g of substrate alone or supplemented with the three eubiotics were incubated in duplicates for each treatment, to determine the in vitro enzymatic digestibility following the three-step method of Boisen and Fernandez (1997). The digestibility was determined with: • [1] Pepsin • [2] Pepsin+pancreatin • [3] Pepsin+pancreatin+viscozyme B. With Gastric Contents and Small Intestine Contents
For gas production, results were analyzed for each incubation time as a split-plot design, considering the donor pig as a block, the contents (fresh vs. frozen) as the main plot and the treatment as the subplot. The same design was used to analyze the results obtained from digestive contents (gastric vs. small intestine) as the main plot. In vitro enzymatic results were not statistically analyzed as there were no sources of experimental variability. Differences were considered significant when P<0.05, and a trend for significance was considered when 0.05 ? P<0.10 and, when significant, differences were compared by the Tukey t test at P<0.05.

The next test relates to ileal microbiota. Description: Broiler feeding trial, ileal microbiota 16S rRNA sequencing. It counts as in vivo, chickens. The settings on record: Groups B and C; T2 and T3, significant for T2 only, P<0.0001. An excerpt: (§1) Each group was sampled three times (i.e., S1=14 days, S2=28 days, S3=38/42 days) in specific days corresponding to when the feed will be changed along the feeding program.
(§2) During each sampling (i.e., S1, S2 and S3) a total of 40 birds/group were humanely euthanized and 9 litter samples will be collected (i.e., 3 samples/group).
(§3) 16S rRNA gene PCR amplification and sequencing. The V3-V4 hypervariable region of the 16S rRNA gene was PCR-amplified using 341F and 785R primers with Illumina overhang adaptors sequences. Amplicons purification was performed by using AMPure XP Beads magnetic beads (Beckman Coulter, Brea, CA). For the indexed library preparation, the Nextera XT DNA Library Prep Kit (Illumina, San Diego, CA) was used. A further magnetic beads purification step was performed and libraries quantified using the Qubit 3.0 fluorimeter (Invitrogen), then pooled at 4 nM. The library pool was denatured with NaOH 0.2 N and diluted to 6 μM. […]
(§4) Bioinformatics and statistics. […] After chimera sequences removal, high-quality reads were filtered and binned into high-resolution operational taxonomic units (OTUs) according to the taxonomic threshold of 99% through an open-reference strategy performed with dada2 (Callahan et al, 2016). […] Alpha diversity was measured using Faith PD index and number of observed OTUs. […]

For another test, the system named is litter microbiota. Kind of test: Broiler feeding trial, litter microbiota. The settings on record: groups A, B, C. It counts as in vivo, chickens.
From the text: as §1, §2, §3, §4

Test [3] relates to fecal microbial community. Kind of test: Microbiome composition by shotgun sequencing: alpha diversity (first set). It counts as cell-based, human. The settings on record: after 24 h fermentation, vs corresponding control.
The test system of test [4] is genes involved in Acetyl-CoA fermentation to Butyrate pathway. Description: Shotgun sequencing functional analysis: butyrate pathway genes (first set). It counts as cell-based, human. The settings on record: 0.2× dose; after 24 h fermentation; vs corresponding control.
The subject of the next test is Bifidobacterium. Description: Microbiome composition by shotgun sequencing: Bifidobacterium (first set). Format: cell-based, human. The settings on record: after 24 h fermentation, vs corresponding control.

The values that follow come from patent US12508280B2, “Formulations for improving gut health” (DSM IP ASSETS B.V., priority 2018, dated 2025).

Procedure for caecal contents: After 30 days of adaptation, animals were slaughtered. […] Regarding the caecal contents, one part was immediately sampled, dispensed in 20 ml tubes, frozen in liquid nitrogen and stored at −80° C. to use as frozen inoculum for in vitro gas production studies. The other part was directly used as fresh fermentation inoculum.
The microbial fermentation pattern of caecal contents was studied in vitro by the gas production technique (Theodorou et al., 1994. Anim Feed Sci Technol 48:185-1-97). […] Firstly, triplicate glass bottles (110 mL total volume) for each treatment were filled with 56 mL incubation solution. Caecal contents of each of the 3 pigs for each treatment were mixed 2:1 with the incubation solution under CO2 atmosphere and homogenized for few minutes with waring blender (ceacal contents implies a 0.20 of total incubation solution). Then, 24 mL of the mixture were added to each bottle to complete the 80 mL total liquid volume. In addition, triplicate bottles without substrate were also included as blanks. Bottles were sealed under a CO2 stream and incubated at 39° C. for 12 h. Pressure was recorded every two hours throughout the incubation period, by means of an HD 2124.02 manometer fitted with a TP804 pressure gauge (Delta Ohm, Caselle di Selvazzano, Italy). Readings were converted into volume by a pre-established linear regression equation between the pressure recorded in the same bottles under the same conditions and known air volumes (n=103; R2=0.996). The gas volume recorded for each incubation time was expressed per unit of incubated organic matter (OM). Methane (CH4) concentration was measured on every 6 h interval. At 6 and 12 h incubation samples were collected and either acidified 1:1 with 0.1N HCl or added to 0.5 ml of a deproteinizing mixture of 0.5 M PO4H3 with 2 mg/ml 4-methyl valeric acid, that were stored at −20° C. for determination of ammonia and volatile fatty acid (VFA) concentration, respectively. Note that the procedure of the in vitro gas production was the same for both fresh inocula and frozen inocula, with the only difference that the frozen samples of caecal contents were previously maintained at 38° C. for 5 min for thawing.
For gas production, results were analyzed for each incubation time as a split-plot design, considering the donor pig as a block, the contents (fresh vs. frozen) as the main plot and the treatment as the subplot. […] Differences were considered significant when P<0.05, and a trend for significance was considered when 0.05 ? P<0.10 and, when significant, differences were compared by the Tukey t test at P<0.05.

Take `Cc1cc2nc3c(=O)[nH]c(=O)nc-3n(C[C@H](O)[C@H](O)[C@H](O)CO)c2cc1C` [Vitamin B2, riboflavin]: the “PCA of functional features (6361 features, 63 samples)” value in test [1] is “clear visible separation”. For the same compound, the “CH4 production as volume per unit of incubation substrate” value in the test on caecal contents (6 and 12 h incubation, ranking, no significant differences) was “lowest accumulate CH4”. Moreover, the “concentration of total VFA, molar proportions of VFA, ammonia concentration” value with caecal contents (among treatments) is listed as “No differences were recorded”. Further, in the test on caecal contents (up to 12 h incubation, numerical, no significant differences (P>0.05)), the “CH4 proportion of total gas” value is on record as “the lowest”. Besides, in the test with caecal contents (vs control, 4, 10 and 12 h incubation, P<0.05), the volume of gas entry is given as “higher”. Moreover, in test [2], the “substrate digestibility incubated in (P+Pancreatin) and/or (P+P+Viscozyme)” value is reported as “no differences among treatments were observed” and the “substrate digestibility incubated in pepsin-HCl” value is reported as “higher than that of other treatments”. Also, the “ileal species richness (observed OTUs)” value in the test on ileal microbiota is reported as “increase in terms of species richness”. For the same compound, in the test on litter microbiota, the “litter microbiome bacterial composition and species richness/diversity” value is “no significant differences”.
Vitamin E: the “microbiome alpha diversity (Shannon diversity index)” value in test [3] (0.2× dose), in test [3] (1× dose) and in test [3] (5× dose) was “increase microbiome diversity” each time. The “relative abundance of genes involved in Acetyl-CoA fermentation to Butyrate pathway” value in test [4] is listed as “increase relative abundance”. The Bifidobacterium relative abundance entry in the test on Bifidobacterium (0.2× dose), with Bifidobacterium (1× dose) and with Bifidobacterium (5× dose) was “increase Bifidobacterium relative abundance” throughout.
